The assay concerns the target T1, GFRα1-RET (Homo sapiens, UniProt P56159).
T1 construct: expressed in transfected cells; host or cells: MG87 murine fibroblasts, stably transfected
T1 sequence (P56159 25-429 limits assumed): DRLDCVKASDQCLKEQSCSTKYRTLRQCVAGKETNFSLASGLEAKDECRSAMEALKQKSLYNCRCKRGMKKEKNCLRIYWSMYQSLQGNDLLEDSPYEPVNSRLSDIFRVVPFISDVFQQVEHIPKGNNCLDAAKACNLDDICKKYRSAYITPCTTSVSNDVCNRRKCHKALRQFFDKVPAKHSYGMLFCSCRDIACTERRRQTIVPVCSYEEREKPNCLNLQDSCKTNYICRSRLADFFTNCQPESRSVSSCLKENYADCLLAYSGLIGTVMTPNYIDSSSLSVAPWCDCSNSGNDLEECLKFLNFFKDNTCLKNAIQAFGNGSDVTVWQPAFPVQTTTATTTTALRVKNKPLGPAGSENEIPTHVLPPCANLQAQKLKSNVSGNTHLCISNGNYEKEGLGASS
In words: Elk1 reporter-gene (luciferase) assay in cells expressing GFRα1-RET. The following applies: MG87 murine fibroblasts stably transfected with PathDetect Elk-1, GFRα1 and RET, 6 concentrations, agonist/activator activity. The assay is classed as cell-based. Here is the method: For ECso determination, a dose-response test was performed using 6 concentrations of each tested compound. Dose-response curves were fitted using the sigmoidal dose-response (variable slope) analysis in GraphPad Prism program (Graph Pad Inc) and ECso of agonist/activator activity was calculated. Dose-response experiments were all performed in duplicate, two times independently.

The results in this text go back to patent US20260022096A1, “NOVEL SULFONAMIDES AND THEIR USE AS NEUROPROTECTIVE AND/OR NEURORESTORATIVE AGENTS” (GENECODE, priority 2022, published 2026).

In the case of `COC(=O)c1cccc(C2CCN(S(=O)(=O)c3ccc(OC)c(N4[C@@H]5CC[C@H]4CN(C(=O)c4ccc(F)cc4Cl)C5)c3)CC2)c1` [compound 041, methyl 3-[1-[3-[(1S,5R)-3-(2-chloro-4-fluoro-benzoyl)-3,8-diazabicyclo[3.2.1]octan-8-yl]-4-methoxy-phenyl]sulfonyl-4-piperidyl]benzoate], the EC50 is < 1 µM.
`COc1ccc(S(=O)(=O)N2CCC(OCc3ccccc3)C2)cc1N1C2CCC1CN(C(=O)c1ccc(F)cc1Cl)C2` (racemic) [compound 037, [(1S,5R)-8-[5-[(3SR)-3-benzyloxypyrrolidin-1-yl]sulfonyl-2-methoxy-phenyl]-3,8-diazabicyclo[3.2.1]octan-3-yl]-(2-chloro-4-fluoro-phenyl)methanone]: the EC50 was 1 to 10 µM.
The value for `CC(C)(C)NS(=O)(=O)c1cc(Cl)c(OCCO)c(N2[C@@H]3CC[C@H]2CN(C(=O)c2ccc(F)cc2Cl)C3)c1` [compound 112] was < 1 µM; that for `COC(=O)c1ccc(S(=O)(=O)N2CCC(c3ccccc3)CC2)cc1N1[C@@H]2CC[C@H]1CN(C(=O)c1ccc(F)cc1Cl)C2` [compound 069, methyl 2-[(1S,5R)-3-(2-chloro-4-fluoro-benzoyl)-3,8-diazabicyclo[3.2.1]octan-8-yl]-4-[(4-phenyl-1-piperidyl)sulfonyl]benzoate] was < 1 µM; that for `CN(CC1CC1)S(=O)(=O)c1cc(F)c(O)c(N2[C@@H]3CC[C@H]2CN(C(=O)c2ccc(F)cc2Cl)C3)c1` [compound 086, 3-[(1S,5R)-3-(2-chloro-4-fluoro-benzoyl)-3,8-diazabicyclo[3.2.1]octan-8-yl]-N-(cyclopropylmethyl)-5-fluoro-4-hydroxy-N-methyl-benzenesulfonamide] was < 1 µM.
The value for `COc1ccc(S(=O)(=O)N2CCC(Cc3ccccc3)CC2)cc1N1CCN(C(=O)c2ccc(F)cc2Cl)CC1C` (racemic) [compound 019, (2-chloro-4-fluoro-phenyl)-[rac-(3S)-4-[5-[(4-benzyl-1-piperidyl)sulfonyl]-2-methoxy-phenyl]-3-methyl-piperazin-1-yl]methanone] was < 1 µM.
Take `COc1ccc(S(=O)(=O)N(C)C(C)(C)C)cc1N1[C@@H]2CC[C@H]1CN(C(=O)c1cc(F)c(F)cc1Cl)C2` [compound 054, N-tert-butyl-3-[(1S,5R)-3-(2-chloro-4,5-difluoro-benzoyl)-3,8-diazabicyclo[3.2.1]octan-8-yl]-4-methoxy-N-methyl-benzenesulfonamide]: the EC50 lay in the range of 1 to 10 µM.
`COc1ccc(S(=O)(=O)N2CCC(c3ccccc3)CC2)cc1N1[C@@H]2CC[C@H]1CN(C(=O)c1ccc(F)cc1Cl)C2` [compound 009, (2-chloro-4-fluoro-phenyl)-[(1S,5R)-8-[2-methoxy-5-[(4-phenyl-1-piperidyl)sulfonyl]phenyl]-3,8-diazabicyclo[3.2.1]octan-3-yl]methanone] returned an EC50 of 1 to 10 µM.
For `CCCN(C)S(=O)(=O)c1ccc(OC)c(N2[C@@H]3CC[C@H]2CN(C(=O)c2ccc(F)cc2Cl)C3)c1` [compound 003], the EC50 was in the range of 1 to 10 µM.
The compound `CCCN(C)S(=O)(=O)c1ccc(OC(F)(F)F)c(N2[C@@H]3CC[C@H]2CN(C(=O)c2ccc(F)cc2Cl)C3)c1` [compound 027, 3-[(1S,5R)-3-(2-chloro-4-fluoro-benzoyl)-3,8-diazabicyclo[3.2.1]octan-8-yl]-N-methyl-N-propyl-4-(trifluoromethoxy)benzene sulfonamide] came in with a concentration giving a half-maximal response (EC50) of 1 to 10 µM.
In the case of `O=C(c1ccc(F)cc1Cl)N1C[C@H]2CC[C@@H](C1)N2c1cc(S(=O)(=O)N2CCN(CCc3ccc(Cl)cc3)CC2)ccc1OCCO` [compound 078, (2-chloro-4-fluoro-phenyl)-[(1S,5R)-8-[5-[4-[2-(4-chlorophenyl)ethyl]piperazin-1-yl]sulfonyl-2-(2-hydroxyethoxy)phenyl]-3,8-diazabicyclo[3.2.1]octan-3-yl]methanone], the 50% effective concentration (EC50) was < 1 µM.
Turning to `CCc1cc(S(=O)(=O)N2CCC(c3ccccc3)CC2)cc(N2[C@@H]3CC[C@H]2CN(C(=O)c2ccc(F)cc2Cl)C3)c1O` [compound 094, (2-chloro-4-fluoro-phenyl)-[(1S,5R)-8-[3-ethyl-2-hydroxy-5-[(4-phenyl-1-piperidyl)sulfonyl]phenyl]-3,8-diazabicyclo[3.2.1]octan-3-yl]methanone], the EC50 is < 1 µM.
Consider `CN(C(C)(C)C)S(=O)(=O)c1cc(Cl)c(Cl)c(N2[C@@H]3CC[C@H]2CN(C(=O)c2ccc(F)cc2Cl)C3)c1` [compound 133, N-tert-butyl-3,4-dichloro-5-[(1S,5R)-3-(2-chloro-4-fluoro-benzoyl)-3,8-diazabicyclo[3.2.1]octan-8-yl]-N-methyl-benzenesulfonamide], for which the EC50 was < 1 µM.

The EC50 is the midpoint of the concentration-response curve. Read a high EC50 as a need for much substance.
